Where two headings read alike, the source gives them in different places. Each block holds one compound with its values, some of them ahead of it. Where no end group is shown, it is not given here.
Tests used:
Test in all cases: MHC II competition binding assay
DRB1*1301 = DRB1*1301 (Homo sapiens, UniProt P01903+P01911, A100E/A169T/K41T/L162R/M171V/P40S/Q125H/Q178H/Q39Y/Q99D/R42S/S66N/T262R/W38E/Y61H)
Description: (§1) MHC Binding Assays. MHC II competition binding assays were performed using a 384-well high throughput assay as previously described (Salvat, et al. (2014) supra). Binding assays were performed for the eight alleles: DRB1*0101, 0301, 0401, 0701, 0801, 1101, 1301, and 1501. Briefly, 100 nM biotinylated control peptides composed of known peptide antigens for each MHC II allele were incubated in polypropylene 384-well plates with 50 nM purified recombinant MHC II protein and serial dilutions of LST or variant peptide fragments (100 μM to 10 nM). Peptide-MHC II complexes were captured from equilibrated solutions using the conformation specific anti-HLA-DR antibody L243 coated on high binding ELISA plates. Bound control peptide was quantified using the DELFIA streptavidin-Europium conjugate and time resolved fluorescence (SpectraMax Gemini Fluorescence Microplate Reader).

DRB1*0101 = biological target: T1, DRB1*0101 (Homo sapiens, UniProt P01903+P01911, A100R/D57E/F55L/F60I/F76Y/I96L/L162R/M171V/P40L/Q125E/R42F/V115G/Y59C)
T1 construct: purchased Benaroya Research Institute (Seattle, Wash.)
Description: as §1

DRB1*0701 = DRB1*0701 (Homo sapiens, UniProt P01903+P01911, A100R/A102G/A103Q/D57E/D86V/E43K/F76Y/K127E/L162R/M171V/P40G/Q125H/Q99D/R33Q/R42Y/R54Q/S133A/S66F/T210M/V115G/Y107V/Y59L/Y89S)
Description: as §1

DRB1*1501 = biological target: T2, DRB1*1501 (Homo sapiens, UniProt P01903+P01911)
T2 construct: purchased Benaroya Research Institute (Seattle, Wash.)
Description: as §1, with “MHC II competition binding assays were performed using a 384-well high throughput assay as previously described (Salvat, et al. (2014) supra). Binding assays were performed for the eight alleles: DRB1*0101, 0301, 0401, 0701, 0801, 1101, 1301, and 1501.” left out

DRB1*1101 = DRB1*1101 (Homo sapiens, UniProt P01903+P01911, A100R/A169T/A87E/I96F/K41T/L162R/M171V/P40S/Q125H/Q178H/Q39Y/Q99D/R42S/S66Y/T262R/V115G/W38E)
Description: as §1

DRB1*0301 = biological target: T3, DRB1*0301 (Homo sapiens, UniProt P01903+P01911, A100K/A102G/A103R/A169T/F55Y/I96L/K41T/L162R/M171V/P40S/Q125H/Q178H/Q39Y/R42S/S66N/T106N/T262R/W38E/Y61H)
T3 construct: purchased Benaroya Research Institute (Seattle, Wash.)
Description: as §1

DRB1*0801 = DRB1*0801 (Homo sapiens, UniProt P01903+P01911, A100R/A103L/A169T/D86S/F76Y/H45Y/I96F/K41T/L162R/M171V/P40S/Q125H/Q178H/Q39Y/Q99D/R218S/R42G/S66Y/V115G/W38E)
Description: as §1

DRB1*0401 = biological target: T4, DRB1*0401 (Homo sapiens, UniProt P01903+P01911, A100K/A169T/F76Y/I96L/K127E/L162R/M171V/N62H/P40V/Q125Y/R42H/S133A/S149N/S66Y/V115G/V209L/W38E)
T4 construct: purchased Benaroya Research Institute (Seattle, Wash.)
Description: as §1

[1] = synthetic peptide competing with biotinylated control peptide, read-out: IC50 0801
[2] = synthetic peptide competing with biotinylated control peptide, read-out: IC50 0401

Compound: Asn12Gly: full-length lysostaphin single point mutant
binder class DRB1*0101 (DRB1*0101): strong (strong binder if an IC50 value of less than 0.1 μM was observed)

Compound: Asn13His: full-length lysostaphin single point mutant
binder class DRB1*1301 (DRB1*1301): weak (weak if an IC50 value was in the 1-10 μM range)

Compound: DHVKAGQIIGWSGSTGY [Peptide Y93H]
IC50 (DRB1*1101): > 250 µM
IC50 (DRB1*1301): > 250 µM
IC50 (DRB1*0301): > 250 µM
IC50 (DRB1*0801): > 250 µM
IC50 (DRB1*0401): > 250 µM
IC50 (DRB1*1501): < 0.01 µM

Compound: DYVEAGQIIGWSGSTGY [Peptide K95E]
IC50 (DRB1*0101): < 0.01 µM
IC50 (DRB1*0401): < 0.01 µM
IC50 (DRB1*1501): < 0.01 µM

Compound: DYVKAGQQIGWSGSTGY [Peptide I99Q]
IC50 (DRB1*1301): > 250 µM
IC50 (DRB1*0301): > 250 µM
IC50 (DRB1*0801): > 250 µM

Compound: GVDFFMNEGTPVHAISSGKIV [Design 41_46]
IC50 (DRB1*1101): < 0.01 µM
IC50 (DRB1*1301): > 250 µM
IC50 (DRB1*0101): < 0.01 µM
IC50 (DRB1*0301): > 250 µM
IC50 (DRB1*0801): > 250 µM
IC50 (DRB1*0401): < 0.01 µM
IC50 (DRB1*1501): < 0.01 µM

Compound: GVDFFMNEGTPVKAISSGKIV [Design 141E]
IC50 (DRB1*0301; synthetic peptide competing with biotinylated control peptide, read-out: IC50 0301): > 250 µM
IC50 (DRB1*0801; [1]): > 250 µM

Compound: GVDFFMNIGTPVKAISSGKIV [Design C2WT]
IC50 (DRB1*1301; synthetic peptide competing with biotinylated control peptide, read-out: IC50 1301): 104 µM
IC50 (DRB1*0801; [1]): > 250 µM
IC50 (DRB1*0401; [2]): 13.7 µM

Compound: HLHFQRMVGDFGNPTAQ [Peptide 212224]
IC50 (DRB1*1101): 13.4 µM
IC50 (DRB1*1301): > 250 µM
IC50 (DRB1*0101): 0.18 µM
IC50 (DRB1*0301): 116 µM
IC50 (DRB1*0701): > 250 µM
IC50 (DRB1*0801): > 250 µM
IC50 (DRB1*0401): 5.55 µM
IC50 (DRB1*1501): 24.2 µM

Further lines, with some results ahead:

binder class DRB1*1301 (DRB1*1301): weakly
Compound: CSCC[C@H](NC(=O)[C@H](Cc1ccc(O)cc1)NC(=O)[C@H](Cc1c[nH]c2ccccc12)NC(=O)[C@H](CCC(N)=O)NC(=O)[C@H](CCCNC(=N)N)NC(=O)[C@H](Cc1c[nH]cn1)NC(=O)[C@@H](NC(=O)CN)C(C)C)C(=O)N[C@@H](Cc1c[nH]cn1)C(=O)N[C@@H](CC(C)C)C(=O)N[C@@H](CO)C(=O)N[C@@H](CCCCN)C(=O)N[C@@H](Cc1ccc(O)cc1)C(=O)N[C@@H](CC(N)=O)C(=O)N[C@H](C(=O)N[C@@H](CCCCN)C(=O)N[C@H](C(=O)NCC(=O)N[C@@H](CC(=O)O)C(=O)O)C(C)C)C(C)C [Design C3WT]
binder class DRB1*0101 (DRB1*0101): strong (strong binder if an IC50 value of less than 0.1 μM was observed)
binder class DRB1*0701 (DRB1*0701): strong (strong binder if an IC50 value of less than 0.1 μM was observed)
binder class DRB1*1501 (DRB1*1501): weak (weak if an IC50 value was in the 1-10 μM range)

IC50 (DRB1*1101; DRB1*1101, read-out: IC50): > 250 µM
IC50 (DRB1*1301; DRB1*1301, read-out: IC50): > 250 µM
IC50 (DRB1*0101; DRB1*0101, read-out: IC50): > 250 µM
IC50 (DRB1*0301; DRB1*0301, read-out: IC50): > 250 µM
IC50 (DRB1*0801; DRB1*0801, read-out: IC50): > 250 µM
IC50 (DRB1*0401; DRB1*0401, read-out: IC50): > 250 µM
IC50 (DRB1*1501; DRB1*1501, read-out: IC50): > 250 µM
Compound: DHVEAGQQIGWSGSTGY [Peptide 939599]

IC50 (DRB1*1101; DRB1*1101, read-out: IC50): > 250 µM
IC50 (DRB1*1301; DRB1*1301, read-out: IC50): > 250 µM
IC50 (DRB1*0101; DRB1*0101, read-out: IC50): < 0.01 µM
IC50 (DRB1*0301; DRB1*0301, read-out: IC50): > 250 µM
IC50 (DRB1*0801; DRB1*0801, read-out: IC50): > 250 µM
IC50 (DRB1*0401; DRB1*0401, read-out: IC50): < 0.01 µM
IC50 (DRB1*1501; DRB1*1501, read-out: IC50): < 0.01 µM
Compound: DHVKAGQQIGWSGSTGY [Peptide 93_99]

IC50 (DRB1*1301; DRB1*1301, read-out: IC50): > 250 µM
IC50 (DRB1*0101; DRB1*0101, read-out: IC50): < 0.01 µM
IC50 (DRB1*0301; DRB1*0301, read-out: IC50): > 250 µM
IC50 (DRB1*0701; DRB1*0701, read-out: IC50): 104 µM
IC50 (DRB1*0801; DRB1*0801, read-out: IC50): > 250 µM
IC50 (DRB1*1501; DRB1*1501, read-out: IC50): < 0.01 µM
Compound: DYVEAGQQIGWSGSTGY [Peptide 95-99]

IC50 (DRB1*0401; [2]): > 250 µM
Compound: GVHRQWYMHMSKYNVKVGD [Design L83M]
